The nature of this series: Single oral (PO) dose pharmacokinetics study in rats; plasma concentration of MDMA (and prodrug) by LC-MS/MS. The following applies: male SD rats.
Where [1] appears, read: 0.50 h after oral dosing of prodrug 10 mg/Kg.
[2] abbreviates: 1.00 h after oral dosing of prodrug 10 mg/Kg.
Setting [3] is: 2.00 h after oral dosing of prodrug 10 mg/Kg.
The mark [4] stands for this setting: 4.00 h after oral dosing of prodrug 10 mg/Kg.
The mark [5] stands for this setting: 7.00 h after oral dosing of prodrug 10 mg/Kg.
[6] abbreviates: 24.0 h after oral dosing of prodrug 10 mg/Kg.

As for `CC(C)COC(=O)N(C)C(C)Cc1ccc2c(c1)OCO2` (stereo not shown) [Isobutyl carbamate prodrug of MDMA, isobutyl N-[2-(1,3-benzodioxol-5-yl)-1-methyl-ethyl]-N-methyl-carbamate], the “Mean plasma concentration of metabolite MDMA” value (shortened to “Mean plasma concentration”) is, setting by setting: under setting [1], “BLQ (BLQ: Below Lower Limit of Quantification (0.5 ng/mL))”; under setting [2], “BLQ (BLQ: Below Lower Limit of Quantification (0.5 ng/mL))”; under setting [3], “BLQ (BLQ: Below Lower Limit of Quantification (0.5 ng/mL))”; under setting [4], “BLQ (BLQ: Below Lower Limit of Quantification (0.5 ng/mL))”; under setting [5], “BLQ (BLQ: Below Lower Limit of Quantification (0.5 ng/mL))”; under setting [6], “BLQ (BLQ: Below Lower Limit of Quantification (0.5 ng/mL))”.
In the case of `CC(C)OC(=O)N(C)C(C)Cc1ccc2c(c1)OCO2` (stereo not shown) [Isopropyl carbamate prodrug of MDMA, isopropyl N-[2-(1,3-benzodioxol-5-yl)-1-methyl-ethyl]-N-methyl-carbamate], the “Mean plasma concentration” value by setting is: under setting [1], “BLQ (BLQ: Below Lower Limit of Quantification (0.5 ng/mL))”; under setting [2], “BLQ (BLQ: Below Lower Limit of Quantification (0.5 ng/mL))”; under setting [3], “BLQ (BLQ: Below Lower Limit of Quantification (0.5 ng/mL))”; under setting [4], “BLQ (BLQ: Below Lower Limit of Quantification (0.5 ng/mL))”; under setting [5], “BLQ (BLQ: Below Lower Limit of Quantification (0.5 ng/mL))”; under setting [6], “BLQ (BLQ: Below Lower Limit of Quantification (0.5 ng/mL))”.
For the compound `CC(Cc1ccc2c(c1)OCO2)N(C)C(=O)[C@@H](N)CCCCN` (stereo partly drawn) [Lysine prodrug of MDMA, (2S)-2,6-diamino-N-[2-(1,3-benzodioxol-5-yl)-1-methyl-ethyl]-N-methyl-hexanamide], the “Mean plasma concentration” value is listed as “BLQ (BLQ: Below Lower Limit of Quantification (0.5 ng/mL))” under setting [1]; “BLQ (BLQ: Below Lower Limit of Quantification (0.5 ng/mL))” under setting [2]; “BLQ (BLQ: Below Lower Limit of Quantification (0.5 ng/mL))” under setting [3]; “BLQ (BLQ: Below Lower Limit of Quantification (0.5 ng/mL))” under setting [4]; “BLQ (BLQ: Below Lower Limit of Quantification (0.5 ng/mL))” under setting [5]; “BLQ (BLQ: Below Lower Limit of Quantification (0.5 ng/mL))” under setting [6]. In addition, the “Tlast of MDMA prodrug” value (oral dosing of prodrug 10 mg/Kg, analyte prodrug, mean) was 24.0 h.
Consider `CC(=O)N(C)C(C)Cc1ccc2c(c1)OCO2` (stereo not shown) [Methyl amide (acetyl) prodrug of MDMA, N-[2-(2H-1,3-Benzodioxol-5-yl)-1-methyl-ethyl]-N-methylacetamide], for which the “Mean plasma concentration” value under setting [1] is “BLQ (BLQ: Below Lower Limit of Quantification (0.5 ng/mL))”; the “Mean plasma concentration” value under setting [2] is listed as “BLQ (BLQ: Below Lower Limit of Quantification (0.5 ng/mL))”; the “Mean plasma concentration” value under setting [3] is given as “BLQ (BLQ: Below Lower Limit of Quantification (0.5 ng/mL))”; the “Mean plasma concentration” value under setting [4] is recorded as “BLQ (BLQ: Below Lower Limit of Quantification (0.5 ng/mL))”; the “Mean plasma concentration” value under setting [5] is listed as “BLQ (BLQ: Below Lower Limit of Quantification (0.5 ng/mL))”; the “Mean plasma concentration” value under setting [6] is on record as “BLQ (BLQ: Below Lower Limit of Quantification (0.5 ng/mL))”.
As for `CC(Cc1ccc2c(c1)OCO2)N(C)C(=O)C1CCOC1` (stereo not shown) [N-[2-(2H-1,3-Benzodioxol-5-yl)-1-methyl-ethyl]-N-methyl-tetrahydro-3-furamide], the “Mean plasma concentration” value is recorded as “BLQ (BLQ: Below Lower Limit of Quantification (0.5 ng/mL))” under setting [1]; “BLQ (BLQ: Below Lower Limit of Quantification (0.5 ng/mL))” under setting [2]; “BLQ (BLQ: Below Lower Limit of Quantification (0.5 ng/mL))” under setting [3]; “BLQ (BLQ: Below Lower Limit of Quantification (0.5 ng/mL))” under setting [4]; “BLQ (BLQ: Below Lower Limit of Quantification (0.5 ng/mL))” under setting [5]; “BLQ (BLQ: Below Lower Limit of Quantification (0.5 ng/mL))” under setting [6].
As for `CC(Cc1ccc2c(c1)OCO2)N(C)C(=O)C1(C)CCOCC1` (stereo not shown) [N-[2-(2H-1,3-Benzodioxol-5-yl)-1-methylethyl]-N-methyl-4-methyltetrahydro-2H-pyran-4-carboxamide], the “Mean plasma concentration” value is recorded as “BLQ (BLQ: Below Lower Limit of Quantification (0.5 ng/mL))” under setting [1]; “BLQ (BLQ: Below Lower Limit of Quantification (0.5 ng/mL))” under setting [2]; “BLQ (BLQ: Below Lower Limit of Quantification (0.5 ng/mL))” under setting [3]; “BLQ (BLQ: Below Lower Limit of Quantification (0.5 ng/mL))” under setting [4]; “BLQ (BLQ: Below Lower Limit of Quantification (0.5 ng/mL))” under setting [5]; “BLQ (BLQ: Below Lower Limit of Quantification (0.5 ng/mL))” under setting [6].
Consider `CC(Cc1ccc2c(c1)OCO2)N(C)C(=O)OC1COC1` (stereo not shown) [Oxetane-3-yl carbamate prodrug of MDMA, Oxetan-3-yl N-[2-(1,3-benzodioxol-5-yl)-1-methyl-ethyl]-N-methyl-carbamate], for which the “Mean plasma concentration” value is recorded as “BLQ (BLQ: Below Lower Limit of Quantification (0.5 ng/mL))” under setting [1]; “BLQ (BLQ: Below Lower Limit of Quantification (0.5 ng/mL))” under setting [2]; “BLQ (BLQ: Below Lower Limit of Quantification (0.5 ng/mL))” under setting [3]; “BLQ (BLQ: Below Lower Limit of Quantification (0.5 ng/mL))” under setting [4]; “BLQ (BLQ: Below Lower Limit of Quantification (0.5 ng/mL))” under setting [5]; “BLQ (BLQ: Below Lower Limit of Quantification (0.5 ng/mL))” under setting [6].
For `CCCOC(=O)N(C)C(C)Cc1ccc2c(c1)OCO2` (stereo not shown) [Propyl carbamate prodrug of MDMA, propyl N-[2-(1,3-benzodioxol-5-yl)-1-methyl-ethyl]-N-methyl-carbamate], the “Mean plasma concentration” value is, setting by setting: under setting [1], “BLQ (BLQ: Below Lower Limit of Quantification (0.5 ng/mL))”; under setting [2], “BLQ (BLQ: Below Lower Limit of Quantification (0.5 ng/mL))”; under setting [3], “BLQ (BLQ: Below Lower Limit of Quantification (0.5 ng/mL))”; under setting [4], “BLQ (BLQ: Below Lower Limit of Quantification (0.5 ng/mL))”; under setting [5], “BLQ (BLQ: Below Lower Limit of Quantification (0.5 ng/mL))”; under setting [6], “BLQ (BLQ: Below Lower Limit of Quantification (0.5 ng/mL))”.

For the origin of these results see patent US20240317724A1, “3,4-METHYLENEDIOXYMETHAMPHETAMINE AND RELATED PS[…] USES THEREOF” (Terran Biosciences Inc., priority 2021, published 2024).
